Assay results taken from publication PMC10064984, “Anti-cyclooxygenase, anti-glycation, and anti-skin aging effect of Dendrobium officinale flowers’ aqueous extract and its phytochemical validation in aging” (Frontiers in Immunology, 2023).
Values joined by “and” are separate entries in the source; they are usually repeats but may differ in a detail not shown here. Identical values can stand only once. Like-named read-outs stand apart in the source and are kept apart here.

How the values were obtained:
[1] = FRAP total antioxidant capacity; format: biochemical; details: lower part of sheet (compound series);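 note: colourimetric FRAP kit assay read as absorbance in 96-well plates, values as mM FeSO4 via standard curve, EC1 being sample concentration matching 1.0 mmol/L FeSO4, Trolox positive control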
[2] = target: T1, COX-2 (Homo sapiens, UniProt P35354); test: Anti-COX-2 assay (COX-2 Inhibitor Screening Kit); format: biochemical
T1 construct: purchased Beyotime S0168
T1 sequence (P35354 18-604): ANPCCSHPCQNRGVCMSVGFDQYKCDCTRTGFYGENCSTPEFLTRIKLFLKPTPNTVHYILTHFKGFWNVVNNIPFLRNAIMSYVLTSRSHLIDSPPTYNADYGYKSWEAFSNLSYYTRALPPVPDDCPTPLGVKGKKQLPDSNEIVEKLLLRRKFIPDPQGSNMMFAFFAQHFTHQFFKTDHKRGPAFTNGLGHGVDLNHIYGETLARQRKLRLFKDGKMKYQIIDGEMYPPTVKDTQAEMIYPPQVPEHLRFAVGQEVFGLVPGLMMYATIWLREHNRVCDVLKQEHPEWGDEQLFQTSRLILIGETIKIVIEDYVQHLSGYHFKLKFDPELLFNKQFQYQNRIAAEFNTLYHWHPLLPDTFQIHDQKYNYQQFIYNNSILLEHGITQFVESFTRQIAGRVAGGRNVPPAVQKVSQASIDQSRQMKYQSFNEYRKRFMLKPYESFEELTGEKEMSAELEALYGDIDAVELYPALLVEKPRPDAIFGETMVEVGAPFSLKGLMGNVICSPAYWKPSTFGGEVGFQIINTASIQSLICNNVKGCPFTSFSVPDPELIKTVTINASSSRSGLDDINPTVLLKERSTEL

[3] = DPPH· scavenging; format: biochemical; details: mean ± SD, n = 3;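 note: colourimetric DPPH radical scavenging in 96-well plates, absorbance read-out, percent inhibition relative to ethanol control absorbance, IC50 derived graphically from dose-inhibition curves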
[4] = ABTS·+ decolourisation capacity; format: biochemical; details: for ABTS scavenging rate: replicate wells, listed as T9
How it was run: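 IC50 values were derived graphically from dose-inhibition curves, with % inhibition calculated versus a buffer-only (0.2 M phosphate, pH 7.4) control. Each sample (200 μl) reacted for 10 min with 100 μl ABTS·+ reagent pre-set to A729 0.8 ± 0.05, then absorbance at 729 nm was measured in triplicate.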

[5] = Fluorescent AGEs formation in a BSA-fructose/glucose system; format: biochemical; details: for inhibition of fluorescent AGEs formation (BSA-抗糖化), single replicate: individual replicate; for inhibition of fluorescent AGEs formation (BSA-抗糖化), 平均 (mean): mean of 3 replicates
How it was run: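 Fluorescent AGE inhibition was measured in triplicate, correcting sample and control fluorescence for BSA-free blanks. Glycation used BSA incubated with D-fructose and D-glucose, with samples dissolved in DMSO:water (1:4).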

[6] = Online UPLC-PDA-MS-ABTS·+ scavenging (postcolumn derivatisation); details: within DOF extract
Procedure: Online identification of antioxidant components of DOF extract was performed using a UPLC system (Milford, MA, USA) consisting of a Waters photodiode array detector and a Waters postcolumn derivatisation system supplying fresh ABTS solution (UPLC-PDA-QDa-ABTS). […] The detection wavelengths were set at 280 and 734 nm, and the injection volume of the sample was 10 μl.
To detect radical scavengers, the UPLC system was coupled with a Waters pump, which supplied freshly prepared ABTS·+ solution into a reaction coil (15 m, 0.25 mm ID) with a flow rate of 0.2 ml/min at 37°C. Negative peaks were recorded based on a decrease of absorbance at 729 nm after the reaction of individual compounds with the ABTS·+ radical. For preliminary identification of compounds, a Waters Acquity QDa mass detector in negative ionisation mode was connected in series to PDA with the following parameters: electrospray ion source; cone voltage, 15 V; atomiser, N2; and scanning range, 100–800 m/z.

[7] = 15.625 µM, listed as T9, 15.625 µM
[8] = 31.25 µM, listed as T9, 31.25 µM

- COX-2 inhibition (in words) [2]: great COX-2 inhibition
- inhibition at 3.125 µM ([2]; 3.125 μM, single replicates): 18.7%
- COX-2 inhibition ([2]; 3.125 μM, single replicates, listed as T9, 3.125 µM): 24.64% and 15.29%
- inhibition at 6.25 µM ([2]; 6.25 μM, single replicates): 29.8%
- COX-2 inhibition ([2]; 6.25 μM, single replicates, listed as T9, 6.25 µM): 26.80% and 27.13%
- inhibition at 12.5 µM ([2]; 12.5 μM, single replicates): 61.6%
- COX-2 inhibition ([2]; 12.5 μM, single replicates, listed as T9, 12.5 µM): 66.25% and 69.30%
- inhibition at 25 µM ([2]; 25 μM, single replicates): 73.7%
- COX-2 inhibition ([2]; 25 μM, single replicates, listed as T9, 25 µM): 76.43% and 76.52%
- inhibition at 50 µM ([2]; 50 μM, single replicates): 77.8%
- COX-2 inhibition ([2]; 50 μM, single replicates, listed as T9, 50 µM): 79.58% and 76.60%
- inhibition at 100 µM ([2]; 100 μM, single replicates): 79.3%
- COX-2 inhibition ([2]; 100 μM, single replicates, listed as T9, 100 µM): 79.42% and 83.93%
- inhibition at 200 µM ([2]; 200 μM, single replicates): 80.9%
- COX-2 inhibition ([2]; 200 μM, single replicates, listed as T9, 200 µM): 81.85% and 81.79%
- IC50 ([2]; mean ± SD, n = 3, nd, not detected, read-out: COX-2 IC50): 11 ± 0.7 µM
- IC50 ([2]; supplement sheet COX, read-out: COX-2 IC50, single replicate): 11.7 µM and 10.4 µM and 10.9 µM
- IC50 [3]: 172 ± 76 µM
- IC50 ([4]; mean ± SD, n = 3): 6.63 ± 0.41 µM
- IC50 ([5]; mean ± SD, n = 3, read-out: BSA-glycation IC50): 296 ± 8.5 µM
SMILES: O=c1c(OC2OC(CO)C(O)C(O)C2OC2OC(CO)C(O)C(O)C2O)c(-c2ccc(O)c(O)c2)oc2cc(O)cc(O)c12 (centres unmarked) [compound 16, Quercetin-3-O-sophoroside]
- FRAP EC1 [1]: 949.6 ± 41.9 µM
- ABTS scavenging rate ([4]; 0.1mM (second) series, concentration 1.5625 (unit not given)): 15.90% and 14.14% and 8.19%
- ABTS scavenging rate ([4]; 0.1mM (second) series, concentration 3.125 (unit not given)): 24.15% and 23.67% and 20.29%
- ABTS scavenging rate ([4]; 0.1mM (second) series, concentration 6.25 (unit not given)): 44.10% and 44.05% and 40.43%
- ABTS scavenging rate ([4]; 0.1mM (second) series, concentration 12.5 (unit not given)): 74.66% and 75.28% and 72.52%
- ABTS scavenging rate ([4]; 0.1mM (second) series, concentration 25 (unit not given)): 99.29% and 99.51% and 99.54%
- ABTS scavenging rate ([4]; 0.1mM (second) series, concentration 50 (unit not given)): 99.16% and 99.11% and 99.25%
- ABTS scavenging rate ([4]; 0.1mM (second) series, concentration 100 (unit not given)): 98.65% and 98.51% (2×)
- ABTS scavenging rate ([4]; 0.5mM series, concentration 7.8125 (unit not given)): 63.17% and 62.77% and 62.93%
- ABTS scavenging rate ([4]; 0.5mM series, concentration 15.625 (unit not given)): 91.66% and 90.68% and 90.61%
- ABTS scavenging rate ([4]; 0.5mM series, concentration 31.25 (unit not given)): 99.28% and 99.41% and 99.37%
- ABTS scavenging rate ([4]; 0.5mM series, concentration 62.5 (unit not given)): 98.95% and 98.76% and 98.72%
- ABTS scavenging rate ([4]; 0.5mM series, concentration 125 (unit not given)): 98.61% and 98.31% and 98.43%
- ABTS scavenging rate ([4]; 0.5mM series, concentration 500 (unit not given)): 98.97% and 98.88% and 98.79%
- inhibition of fluorescent AGEs formation (BSA-抗糖化), single replicate [5, 7]: -5.89% and 1.09% and -2.67%
- inhibition of fluorescent AGEs formation (BSA-抗糖化), 平均 (mean) [5, 7]: -2.49%
- inhibition of fluorescent AGEs formation (BSA-抗糖化), single replicate [5, 8]: 4.38% and 4.16% and -1.45%
- inhibition of fluorescent AGEs formation (BSA-抗糖化), 平均 (mean) [5, 8]: 2.37%
- inhibition of fluorescent AGEs formation (BSA-抗糖化), single replicate ([5]; 62.5 µM, listed as T9, 62.5 µM): 13.91% and 12.77% and 15.77%
- inhibition of fluorescent AGEs formation (BSA-抗糖化), 平均 (mean) ([5]; 62.5 µM, listed as T9, 62.5 µM): 14.15%
- inhibition of fluorescent AGEs formation (BSA-抗糖化), single replicate ([5]; 125 µM, listed as T9, 125 µM): 29.89% and 32.42% and 28.07%
- inhibition of fluorescent AGEs formation (BSA-抗糖化), 平均 (mean) ([5]; 125 µM, listed as T9, 125 µM): 30.13%
- inhibition of fluorescent AGEs formation (BSA-抗糖化), single replicate ([5]; 250 µM, listed as T9, 250 µM): 44.67% and 46.80% and 48.36%
- inhibition of fluorescent AGEs formation (BSA-抗糖化), 平均 (mean) ([5]; 250 µM, listed as T9, 250 µM): 46.61%
- inhibition of fluorescent AGEs formation (BSA-抗糖化), single replicate ([5]; 500 µM, listed as T9, 500 µM): 63.53% and 64.37% and 63.12%
- inhibition of fluorescent AGEs formation (BSA-抗糖化), 平均 (mean) ([5]; 500 µM, listed as T9, 500 µM): 63.67%
- inhibition of fluorescent AGEs formation (BSA-抗糖化), single replicate ([5]; 1000 µM, listed as T9, 1000 µM): 79.44% and 79.91% and 79.18%
- inhibition of fluorescent AGEs formation (BSA-抗糖化), 平均 (mean) ([5]; 1000 µM, listed as T9, 1000 µM): 79.51%
- inhibition of fluorescent AGEs formation (BSA-抗糖化), single replicate ([5]; 2000 µM, listed as T9, 2000 µM): 88.85% and 89.28% and 89.06%
- inhibition of fluorescent AGEs formation (BSA-抗糖化), 平均 (mean) ([5]; 2000 µM, listed as T9, 2000 µM): 89.06%
- inhibition of fluorescent AGEs formation (BSA-抗糖化), single replicate ([5]; 4000 µM (series head 'T9 4000µM', 2-fold dilutions), listed as T9): 94.75% and 94.42% and 94.91%
- inhibition of fluorescent AGEs formation (BSA-抗糖化), 平均 (mean) ([5]; 4000 µM, listed as T9, 4000 µM): 94.69%
- online ABTS radical scavenging (size of negative peaks at 734 nm) [6]: strongest ABTS radical scavengers
